Consider nine molecules from patent US20260055079A1, “PHTHALAZINONE COMPOUNDS AS PARP7 INHIBITORS” (AZKARRA THERAPEUTICS, INC., priority 2022, published 2026).

One assay has as its target His-GST-PARP7 (Homo sapiens (Human), UniProt Q7Z3E1). The assay is described as follows: PARP7 biochemical assay. As to conditions: read-out: PARP7 IC50.
For assay [1], the system named is NCI-H1373 (human lung adenocarcinoma) cells. As to the kind of experiment: Cell proliferation assay (CellTiter-Glo), NCI-H1373. Particulars: Homo sapiens, NCI-H1373, 144 h; 6 days, CellTiter-Glo; read-out: NCI-H1373 GI50. Format: cell-based. In general terms: Cellular ATP, detected with luciferase, serves as a proxy for viable cell number.
The subject of assay [2] is HARA (human lung squamous cell carcinoma) cells. The assay is described as follows: Cell proliferation assay (CellTiter-Glo), HARA. Format: cell-based. As to conditions: Homo sapiens, 144 h; 6 days, CellTiter-Glo; read-out: HARA GI50.

One may read the IC50 as the concentration needed to halve the response being measured. The term GI50 denotes the concentration at which growth is held to half of that of the control.

Bounds are passed on as bounds.

Chain of His-GST-PARP7 (Q7Z3E1 whole entry): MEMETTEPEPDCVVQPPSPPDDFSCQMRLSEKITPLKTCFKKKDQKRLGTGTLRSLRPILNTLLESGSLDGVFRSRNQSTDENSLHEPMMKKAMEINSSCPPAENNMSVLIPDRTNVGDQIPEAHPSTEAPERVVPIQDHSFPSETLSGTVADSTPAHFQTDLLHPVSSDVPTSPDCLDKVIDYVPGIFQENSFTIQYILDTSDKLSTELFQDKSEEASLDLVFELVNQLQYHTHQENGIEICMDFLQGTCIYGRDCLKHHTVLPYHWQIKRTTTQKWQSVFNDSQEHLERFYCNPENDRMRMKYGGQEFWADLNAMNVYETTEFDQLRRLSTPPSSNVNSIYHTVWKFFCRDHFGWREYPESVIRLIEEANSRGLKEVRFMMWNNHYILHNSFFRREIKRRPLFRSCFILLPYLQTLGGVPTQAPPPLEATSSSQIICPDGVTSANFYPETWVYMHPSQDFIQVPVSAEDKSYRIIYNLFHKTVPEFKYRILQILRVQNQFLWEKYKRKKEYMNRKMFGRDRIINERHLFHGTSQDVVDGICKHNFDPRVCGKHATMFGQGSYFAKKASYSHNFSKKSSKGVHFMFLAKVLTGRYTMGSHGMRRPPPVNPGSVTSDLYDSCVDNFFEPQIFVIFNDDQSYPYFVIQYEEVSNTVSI

For `O=C(c1cc(Cc2n[nH]c(=O)c3ccc(OC4CCC4)cc23)ccc1F)N1CCCN(c2ncc(C(F)(F)F)cn2)CC1` [Example 98, 6-Cyclobutoxy-4-(4-fluoro-3-(4-(5-(trifluoromethyl)pyrimidin-2-yl)-1,4-diazepane-1-carbonyl)benzyl)phthalazin-1(2H)-one], the IC50 at His-GST-PARP7 was under 50 nM. The GI50 in assay [1] was 100 to 1000 nM; in assay [2], over 5000 nM.
For `O=C(c1cc(Cc2n[nH]c(=O)c3ccc(OC4CCC4)cc23)ccc1F)N1CCCN(C(=O)C2CC2)CC1` [Example 101, 6-Cyclobutoxy-4-(3-(4-(cyclopropanecarbonyl)-1,4-diazepane-1-carbonyl)-4-fluorobenzyl)phthalazin-1(2H)-one], in that order: under 50 nM, over 5000 nM and over 5000 nM.
For `O=C(c1cc(Cc2n[nH]c(=O)c3ccc(OC4CCC4)cc23)ccc1F)N1CCN(c2ncc(C(F)(F)F)cn2)CC(F)(F)C1` [Example 126, 6-Cyclobutoxy-4-(3-(6,6-difluoro-4-(5-(trifluoromethyl)pyrimidin-2-yl)-1,4-diazepane-1-carbonyl)-4-fluorobenzyl)phthalazin-1(2H)-one], in that order: under 50 nM, 100 to 1000 nM and over 5000 nM.
For `N#Cc1cnc(N2CCN(C(=O)c3cc(Cc4n[nH]c(=O)c5ccc(OC6CCC6)cc45)ccc3F)CC2)c(C(F)(F)F)c1` [Example 129, 6-(4-(5-((7-cyclobutoxy-4-oxo-3,4-dihydrophthalazin-1-yl)methyl)-2-fluorobenzoyl)piperazin-1-yl)-5-(trifluoromethyl)nicotinonitrile], in that order: under 50 nM, 1000 to 5000 nM and 1000 to 5000 nM.
In the case of `O=C(c1cc(Cc2n[nH]c(=O)c3ccc(OC4CCC4)cc23)ccc1F)N1CCN(c2ccc(CO)cn2)CC1` [Example 130, 6-cyclobutoxy-4-(4-fluoro-3-(4-(5-(hydroxymethyl)pyridin-2-yl)piperazine-1-carbonyl)benzyl)phthalazin-1(2H)-one], on His-GST-PARP7, the half-inhibitory concentration (IC50) is under 50 nM. The 50% growth inhibitory concentration (GI50) in assay [1] was 100 to 1000 nM; in assay [2], over 5000 nM.
Consider `COc1cc(C#N)cnc1N1CCN(C(=O)c2cc(Cc3n[nH]c(=O)c4ccc(OC5CCC5)cc34)ccc2F)CC1` [Example 131, 6-(4-(5-((7-cyclobutoxy-4-oxo-3,4-dihydrophthalazin-1-yl)methyl)-2-fluorobenzoyl)piperazin-1-yl)-5-methoxynicotinonitrile], for which the IC50 on His-GST-PARP7 is under 50 nM. Further, the GI50 in assay [1] was 100 to 1000 nM; in assay [2] it was 1000 to 5000 nM.
On to `Cc1nc(N2CCN(C(=O)c3cc(Cc4n[nH]c(=O)c5ccc(OC6CCC6)cc45)ccc3F)CC2)ccc1C#N` [Example 133, 6-(4-(5-((7-cyclobutoxy-4-oxo-3,4-dihydrophthalazin-1-yl)methyl)-2-fluorobenzoyl)piperazin-1-yl)-2-methylnicotinonitrile], for which the 50% inhibitory concentration (IC50) on His-GST-PARP7 was under 50 nM. The GI50 in assay [1] was 100 to 1000 nM; in assay [2], over 5000 nM.
For `Cc1cc(N2CCN(C(=O)c3cc(Cc4n[nH]c(=O)c5ccc(OC6CCC6)cc45)ccc3F)CC2)ncc1C#N` [Example 134, 6-(4-(5-((7-cyclobutoxy-4-oxo-3,4-dihydrophthalazin-1-yl)methyl)-2-fluorobenzoyl)piperazin-1-yl)-4-methylnicotinonitrile], in that order: under 50 nM, under 100 nM and 100 to 1000 nM.
For `COc1nc(N2CCN(C(=O)c3cc(Cc4n[nH]c(=O)c5ccc(OC6CCC6)cc45)ccc3F)CC2)ccc1C#N` [Example 136, 6-(4-(5-((7-cyclobutoxy-4-oxo-3,4-dihydrophthalazin-1-yl)methyl)-2-fluorobenzoyl)piperazin-1-yl)-2-methoxynicotinonitrile], in that order: 50 to 100 nM, 100 to 1000 nM and over 5000 nM.
